From patent US20100099676A1 (SHIONOGI & CO., LTD., priority 2006, published 2010)

Key:
Assay in all cases: Enzyme inhibiting activity of MMPs, fluorogenic peptide substrate
Type in all cases: biochemical
MMP-13 = target: T1, MMP-13 (Homo sapiens, UniProt P45452); details: APMA-activated proenzyme; substrate MOCAc-Pro-Leu-Gly-Leu-A2Pr(DNP)-Ala-Arg-NH2, fluorescent intensity; read-out: IC50 MMP-13
T1 construct: purchased Calbiochem (EMD/MERCK Biosciences)
Method in brief: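 Pro-MMP-13 was activated with 1 mM APMA at 37° C for 2 h in 50 mM Tris-HCl pH 7.6, 0.3 M NaCl, 10 mM CaCl2, 0.005% Brij35. Activity was read by fluorescence using MOCAc-Pro-Leu-Gly-Leu-A2Pr(DNP)-Ala-Arg-NH2 substrate, with enzyme and inhibitor blank corrections. IC50 is the concentration giving 50% inhibition.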

MMP-2 = target: T2, MMP-2 (Homo sapiens, UniProt P08253); details: substrate MOCAc-Pro-Leu-Gly-Leu-A2Pr(DNP)-Ala-Arg-NH2, fluorescent intensity
T2 construct: purchased Calbiochem (EMD/MERCK Biosciences)
T2 sequence (P08253 110-660): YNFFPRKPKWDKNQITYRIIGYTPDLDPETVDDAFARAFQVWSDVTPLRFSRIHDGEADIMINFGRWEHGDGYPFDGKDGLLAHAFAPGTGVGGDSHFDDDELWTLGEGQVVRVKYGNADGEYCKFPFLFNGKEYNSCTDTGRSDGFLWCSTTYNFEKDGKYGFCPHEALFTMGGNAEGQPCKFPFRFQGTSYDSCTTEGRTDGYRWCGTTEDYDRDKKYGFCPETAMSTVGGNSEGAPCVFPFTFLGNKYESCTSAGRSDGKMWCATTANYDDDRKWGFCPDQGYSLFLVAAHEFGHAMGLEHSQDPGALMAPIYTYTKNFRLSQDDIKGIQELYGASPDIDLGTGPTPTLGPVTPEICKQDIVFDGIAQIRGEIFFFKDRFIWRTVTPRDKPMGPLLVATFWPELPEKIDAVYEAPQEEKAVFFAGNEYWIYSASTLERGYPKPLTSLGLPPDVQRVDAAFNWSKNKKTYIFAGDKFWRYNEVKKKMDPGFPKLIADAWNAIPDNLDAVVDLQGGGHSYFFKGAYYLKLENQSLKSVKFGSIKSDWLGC
Method in brief: (§1)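 Recombinant human enzymes with the fluorogenic substrate MOCAc-Pro-Leu-Gly-Leu-A2Pr(DNP)-Ala-Arg-NH2. Fluorescence was read for enzyme+substrate±inhibitor and substrate±inhibitor blanks.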

MMP-9 = target: T3, MMP-9 (Homo sapiens, UniProt P14780); details: substrate MOCAc-Pro-Leu-Gly-Leu-A2Pr(DNP)-Ala-Arg-NH2, fluorescent intensity
T3 construct: purchased Calbiochem (EMD/MERCK Biosciences)
Method in brief: as §1

T3 sequence (P14780 94-707): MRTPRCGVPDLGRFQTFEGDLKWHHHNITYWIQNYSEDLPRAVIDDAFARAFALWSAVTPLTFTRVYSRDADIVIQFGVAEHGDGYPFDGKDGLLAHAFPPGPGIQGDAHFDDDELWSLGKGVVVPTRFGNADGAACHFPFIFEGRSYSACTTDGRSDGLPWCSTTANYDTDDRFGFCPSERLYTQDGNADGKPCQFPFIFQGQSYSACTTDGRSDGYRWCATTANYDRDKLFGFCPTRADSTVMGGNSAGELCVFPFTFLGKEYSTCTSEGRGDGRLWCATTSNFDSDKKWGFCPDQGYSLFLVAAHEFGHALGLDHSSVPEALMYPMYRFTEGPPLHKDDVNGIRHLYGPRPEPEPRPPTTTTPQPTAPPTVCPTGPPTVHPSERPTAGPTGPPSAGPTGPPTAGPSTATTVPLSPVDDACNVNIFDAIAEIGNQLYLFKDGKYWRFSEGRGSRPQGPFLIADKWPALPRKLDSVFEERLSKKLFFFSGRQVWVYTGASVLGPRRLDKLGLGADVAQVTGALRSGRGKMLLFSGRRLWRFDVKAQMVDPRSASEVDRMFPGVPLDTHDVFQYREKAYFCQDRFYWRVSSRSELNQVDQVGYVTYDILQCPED

| SMILES | IC50 (MMP-13) [nM] | IC50 (MMP-2) [nM] | IC50 (MMP-9) [nM] |
| --- | --- | --- | --- |
| CC(C)[C@@H](NS(=O)(=O)N1CCN(c2ccc(C#Cc3ccc4[nH]c(=O)n(Cc5ccc(Cl)cc5)c(=O)c4c3)cc2)CC1)C(=O)O [III-6, (R)-2-(4-{4-[3-(4-chrolobenzyl)-2,4-dioxo-1,2,3,4-tetrahydroquinazolin-6-ylethynyl]-phenyl}-piperazine-1-sulfonylamino)-3-methylbutanoic acid] | 28 | > 10000 | > 10000 |
| CC(=O)c1ccc(Cl)c2ccc(C#Cc3ccc(N4CCN(S(=O)(=O)N[C@H](C)C(=O)O)CC4)cc3)cc12 [III-10, (R)-2-{4-[4-(8-acetyl-5-chrolonaphthalen-2-ylethynyl)-phenyl]-piperazine-1-sulfonylamino}-proponic acid] | 13 | > 10000 | > 10000 |
| C[C@@H](NS(=O)(=O)N1CCN(c2ccc(C#Cc3cccc(-c4ncc(-c5ccc(F)cc5)o4)c3)cc2)CC1)C(=O)O [III-12, (R)-2-[4-(4-{3-[5-(4-fluorophenyl)-oxazol-2-yl]-phenylethynyl}-phenyl)-piperazine-1-sulfonylamino]-proponic acid] | 4 | > 10000 | > 10000 |
| CC(C)CON=Cc1cccc2ccc(C#Cc3ccc(N4CCN(S(=O)(=O)N[C@H](C)C(=O)O)CC4)cc3)cc12 [III-17, (R)-2-(4-{4-[8-(isobutoxyiminomethyl)-naphthalen-2-ylethynyl]-phenyl}-piperazine-1-sulfonylamino)-proponic acid] | 25 | > 10000 | > 10000 |
| CC(=O)c1cccc2ccc(C#Cc3ccc(N4CCN(S(=O)(=O)N[C@@H](CO)C(=O)O)CC4)cc3)cc12 [III-24, (S)-2-{4-[4-(8-acetylnaphthalen-2-ylethynyl)-phenyl]-piperazine-1-sulfonylamino}-3-hydroxyproponic acid] | 26 | > 10000 | > 10000 |
| CC(C)[C@@H](NS(=O)(=O)N1CCN(c2ccc(C#Cc3ccc4ccn(Cc5ccccc5)c(=O)c4c3)cc2)CC1)C(=O)O [III-27, (R)-2-{4-[4-(2-benzyl1-oxo-1,2-dihydroisoquinolin-7-ylethynyl)-phenyl]-piperazine-1-sulfonylamino}-3-methylbutanoic acid] | 19 | > 10000 | > 10000 |
| CC(C)[C@@H](NS(=O)(=O)N1CCN(c2ccc(C#Cc3cc(C(=O)NCc4ccccc4)c(=O)n(C)c3)cc2)CC1)C(=O)O [III-30, (R)-2-{4-[4-(5-benzylcarbamoyl-1-methyl-6-oxo-1,6-dihydropyridin-3-ylethynyl)-phenyl]-piperazine-1-sulfonylamino}-3-methylbutanoic acid] | 22 | 1000 to 10000 | > 10000 |
| CC(C)[C@@H](NS(=O)(=O)N1CCN(c2ccc(C#Cc3ccnc(C(=O)NCc4ccc(N5CCCC5=O)cc4)c3)cc2)CC1)C(=O)O [III-37, (R)-3-methyl-2-[4-(4-{2-[4-(2-oxopyrrolidine-1-yl)-benzylcarbamoyl]-pyridin-4-ylethynyl}-phenyl)-piperazine-1-sulfonylamino]-butanoic acid] | 1 | 100 to 1000 | > 10000 |
| C/C=C/c1cccc2ccc(C#Cc3ccc(N4CCN(S(=O)(=O)N[C@H](C)C(=O)O)CC4)cc3)cc12 [III-38, (R)-2-(4-{4-[((E)-8-propenyl)-naphthalen-2-ylethynyl]-phenyl}-piperazine-1-sulfonylamino)-proponic acid] | 29 | > 10000 | > 10000 |
| CCCCC(=O)c1cn(C)c2ccc(C#Cc3ccc(N4CCN(S(=O)(=O)N[C@H](C)C(=O)O)CC4)cc3)cc12 [III-45, (R)-2-{4-[4-(1-methyl-3-pentanoyl-1H-indol-5-ylethynyl)-phenyl]-piperazine-1-sulfonylamino}-proponic acid] | 13 | > 10000 | > 10000 |
